≈ marks a conversion by molar mass, not a printed value.

In general, LC50 refers to the concentration that kills 50% of the test population.

Assay [1] has as its system Southern Armyworm. The assay is described as follows: Southern armyworm test, third-instar larvae on treated Sieva lima bean leaves. It counts as in vivo, Spodoptera eridania (Cramer). Particulars: for Mortality Rating Southern Armyworm: third-instar larvae. Here is the method:
Test formulations and procedures used for evaluation are as follows:
A. 100 mg of the test material is weighed, placed in a funnel over a 113 g narrow-mouth bottle, rinsed into the bottle with a 35 mL scoop of acetone, followed by a 35 mL scoop of water and another 35 mL scoop of acetone to yield 1000 ppm in 65% acetone. If the material is not soluble, it is broken up with a glass rod and used as a suspension.
B. This stock solution ("A") is used to make 300 ppm solutions or suspensions by pipetting 30 mL of "A" into a bottle containing 70 mL of 50% acetone to yield 300 ppm. Further dilutions in 50% acetone are made as required.
C. Tests requiring 10 ppm acetone solutions: 1 mL of "A" is pipetted into 99 mL of acetone to yield 10 ppm. Additional dilutions are made using 50% acetone as required.
Southern Armyworm--Spodoptera eridania (Cramer)
A Sieva lima bean plant with just the primary leaves expanded to 1.91 cm is dipped for three seconds with agitation in the "A" solution of 1000 ppm and set in the hood to dry. Following this, one leaf is placed in a 9 cm petri dish which has a moist filter paper in the bottom and 10 third-instar armyworm larvae about 1 cm long. This dish is covered and held at 80° F., and 50% r.h. After two days, mortality counts and estimates of the amount of feeding are made. Compounds showing partial kill and/or inhibition of feeding are held for an extra day for further observations.
All compounds showing activity as defined above are retested, using the second leaf on the bean plant, after an interval of seven days from original treatment, as an assay of residual activity.

The subject of assay [2] is Tobacco Budworm 3rd Instar. The experiment in a line: Tobacco budworm secondary test, third-instar larvae on treated cotton cotyledons. It counts as in vivo, Heliothis virescens (Fabricus).
Method: Tobacco Budworm--Heliothis virescens (Fabricus)
Three cotton plants with just expanded cotyledons are dipped in 1000 ppm solution and placed in the hood to dry. When dry, each cotyledon is cut in half, and 10 are each placed in a 28 g plastic medicine cup containing a 1.25 cm dental wick saturated with water, and one third-instar budworm larva is added. The cup is capped and held for three days at 80° F., 50% relative humidity, after which mortality counts are made.

For `N=C(NN=Cc1ccc(OC(F)(F)C(F)F)cc1)N(N=Cc1ccc(OC(F)(F)C(F)F)cc1)C(=O)NCCCl` [HCF2 CF2 O / HCF2 CF2 O / ClCH2 CH2 / H], the “Mortality Rating Southern Armyworm” value is 0 (No effect) in assay [1] (10 ppm), 8 (86-99%) in assay [1] (100 ppm) and 9 (100%) in assay [1] (1000 ppm). Besides, in assay [1] (Spodoptera eridania, read-out: LC50 Southern Armyworm), the LC50 was 21 mg/L (≈ 34.8 µM). For the same compound, the “Mortality Rating Tobacco Budworm 3rd Instar” value in assay [2] (10 ppm) is 0 (No effect); in assay [2] (100 ppm) it was 0 (No effect); in assay [2] (1000 ppm) it was 6 (66-75%).
As to `N=C(NN=Cc1ccc(SC(F)(F)C(F)F)cc1)NN=Cc1ccc(SC(F)(F)C(F)F)cc1` [HCF2 CF2 S / B], the “Mortality Rating Southern Armyworm” value in assay [1] (100 ppm) is 9 (100%). Moreover, in assay [1] (1000 ppm), the “Mortality Rating Southern Armyworm” value is listed as 9 (100%). Further, in assay [2] (1000 ppm), the “Mortality Rating Tobacco Budworm 3rd Instar” value is given as 0 (No effect) and the “reduced feeding (R) Tobacco Budworm 3rd Instar” value (from here on “reduced feeding”) is given as “R”.
As to `CC(C)OC(=O)N(N=Cc1ccc(SC(F)(F)C(F)F)cc1)C(=N)NN=Cc1ccc(SC(F)(F)C(F)F)cc1` [HCF2 CF2 S / HCF2 CF2 S / -i-C3 H7], the “Mortality Rating Southern Armyworm” value in assay [1] (100 ppm) and in assay [1] (1000 ppm) was 9 (100%) in each case. The “Mortality Rating Tobacco Budworm 3rd Instar” value in assay [2] (100 ppm) is 0 (No effect); in assay [2] (1000 ppm), 5 (56-65%). In addition, the “reduced feeding” value in assay [2] (1000 ppm) is “R”.
Take `CN(C)C(=O)N(N=Cc1ccc(SC(F)(F)C(F)F)cc1)C(=N)NN=Cc1ccc(SC(F)(F)C(F)F)cc1` [HCF2 CF2 S / HCF2 CF2 S / CH3 / CH3]: the “Mortality Rating Southern Armyworm” value in assay [1] (10 ppm) is listed as 3 (36-45%); in assay [1] (100 ppm), 9 (100%); in assay [1] (1000 ppm), 9 (100%). Also, the “Mortality Rating Tobacco Budworm 3rd Instar” value was 0 (No effect) in assay [2] (10 ppm), 6 (66-75%) in assay [2] (100 ppm) and 6 (66-75%) in assay [2] (1000 ppm).
Take `CCOC(=O)N(N=Cc1ccc(OC(F)F)cc1)C(=N)NN=Cc1ccc(OC(F)F)cc1` [HCF2 O / HCF2 O / C2 H5]: the results for the “Mortality Rating Southern Armyworm” value in assay [1] (10 ppm), in assay [1] (100 ppm) and in assay [1] (1000 ppm) were 0 (No effect), 9 (100%) and 9 (100%), respectively. The “Mortality Rating Tobacco Budworm 3rd Instar” value in assay [2] (1000 ppm) is listed as 2 (26-35%).
Consider `N=C(NN=Cc1ccc(SC(F)F)cc1)NN=Cc1ccc(SC(F)F)cc1` [HCF2 S / B], for which the “Mortality Rating Southern Armyworm” value was 9 (100%) in assay [1] (100 ppm) and 8 (86-99%) in assay [1] (1000 ppm). Besides, the “Mortality Rating Tobacco Budworm 3rd Instar” value in assay [2] (10 ppm), in assay [2] (100 ppm) and in assay [2] (1000 ppm) was 0 (No effect) each time. The “reduced feeding” value in assay [2] (100 ppm) and in assay [2] (1000 ppm) was “R” in each case.
`CCCOC(=O)N(N=Cc1ccc(SC(F)F)cc1)C(=N)NN=Cc1ccc(OC(F)F)cc1` [HCF2 S / HCF2 O / -n-C3 H7]: the “Mortality Rating Southern Armyworm” value in assay [1] (100 ppm) is 0 (No effect); in assay [1] (1000 ppm) it was 9 (100%). In addition, the “Mortality Rating Tobacco Budworm 3rd Instar” value in assay [2] (1000 ppm) is listed as 0 (No effect).
With `CN(C)C(=O)N(N=Cc1ccc(SC(F)F)cc1)C(=N)NN=Cc1ccc(SC(F)F)cc1` [HCF2 S / HCF2 S / CH3 / CH3], the “Mortality Rating Southern Armyworm” value in assay [1] (10 ppm) is listed as 0 (No effect); in assay [1] (100 ppm) it was 9 (100%); in assay [1] (1000 ppm), 9 (100%). Moreover, in assay [2] (1000 ppm), the “Mortality Rating Tobacco Budworm 3rd Instar” value is 0 (No effect).
Take `N=C(NN=Cc1ccc(SC(F)F)cc1)N(N=Cc1ccc(SC(F)F)cc1)C(=O)OCCCl` [HCF2 S / HCF2 S / ClCH2 CH2]: the results for the “Mortality Rating Southern Armyworm” value in assay [1] (100 ppm) and in assay [1] (1000 ppm) were 0 (No effect) and 9 (100%), respectively. Moreover, in assay [2] (1000 ppm), the “Mortality Rating Tobacco Budworm 3rd Instar” value is listed as 0 (No effect). Besides, the “reduced feeding” value in assay [2] (1000 ppm) is given as “R”.
With `CCOC(=O)N(N=Cc1ccc(SC(F)F)cc1)C(=N)NN=Cc1ccc(SC(F)F)cc1` [HCF2 S / HCF2 s / C2 H5], the entries for the “Mortality Rating Southern Armyworm” value in assay [1] (100 ppm) and in assay [1] (1000 ppm) were 0 (No effect) and 9 (100%), respectively. Further, the “Mortality Rating Tobacco Budworm 3rd Instar” value in assay [2] (1000 ppm) was 0 (No effect). The “reduced feeding” value in assay [2] (1000 ppm) was “R”.
Consider `N=C(NN=Cc1ccc(SC(F)F)cc1)NN=Cc1ccc(SC(F)F)cc1` [HCF2 S / S], for which the “Mortality Rating Southern Armyworm” value in assay [1] (100 ppm) is given as 9 (100%). In addition, the “Mortality Rating Southern Armyworm” value in assay [1] (1000 ppm) is on record as 9 (100%). For the same compound, in assay [2] (1000 ppm), the “Mortality Rating Tobacco Budworm 3rd Instar” value was 0 (No effect) and the “reduced feeding” value is given as “R”.
As for `N=C(NN=Cc1ccc(OC(F)(F)C(F)Cl)cc1)NN=Cc1ccc(OC(F)(F)C(F)Cl)cc1` (stereo not shown) [drawing 43 / B], the “Mortality Rating Southern Armyworm” value in assay [1] (100 ppm) and in assay [1] (1000 ppm) was 9 (100%) throughout. The “Mortality Rating Tobacco Budworm 3rd Instar” value in assay [2] (10 ppm) is 0 (No effect); in assay [2] (100 ppm) it was 0 (No effect); in assay [2] (1000 ppm), 9 (100%).
For the compound `N=C(NN=Cc1ccc(OC(F)(F)C(F)Cl)cc1)NN=Cc1ccc(OC(F)(F)C(F)Cl)cc1` (stereo not shown) [drawing 44 / S], the “Mortality Rating Southern Armyworm” value in assay [1] (10 ppm) is given as 6 (66-75%); in assay [1] (100 ppm) it was 9 (100%); in assay [1] (1000 ppm) it was 9 (100%). Moreover, the entries for the “Mortality Rating Tobacco Budworm 3rd Instar” value in assay [2] (10 ppm), in assay [2] (100 ppm) and in assay [2] (1000 ppm) were 0 (No effect), 0 (No effect) and 9 (100%), respectively. The “reduced feeding” value in assay [2] (10 ppm), in assay [2] (100 ppm) and in assay [2] (1000 ppm) was “R” in each case.
For the compound `CC1(C)Oc2ccc(C=NNC(=N)NN=Cc3ccc4c(c3)OC(C)(C)O4)cc2O1` [drawing 45 / S], the “Mortality Rating Southern Armyworm” value in assay [1] (10 ppm) is on record as 6 (66-75%); in assay [1] (1000 ppm), 9 (100%). Moreover, the “Mortality Rating Tobacco Budworm 3rd Instar” value in assay [2] (100 ppm) and in assay [2] (1000 ppm) was 0 (No effect) throughout. Moreover, the “reduced feeding” value in assay [2] (1000 ppm) is recorded as “R”.
Turning to `N=C(NN=Cc1ccc2c(c1)OC(F)(F)O2)NN=Cc1ccc2c(c1)OC(F)(F)O2` [drawing 46 / S], the “Mortality Rating Southern Armyworm” value in assay [1] (10 ppm) is reported as 4 (46-55%); in assay [1] (100 ppm) it was 0 (No effect); in assay [1] (1000 ppm) it was 9 (100%). Moreover, the “Mortality Rating Tobacco Budworm 3rd Instar” value in assay [2] (100 ppm) and in assay [2] (1000 ppm) was 0 (No effect) in each case. The “reduced feeding” value in assay [2] (100 ppm) and in assay [2] (1000 ppm) was “R” each time.
In the case of `N=C(NN=Cc1ccc2c(c1)OC(F)C(F)(F)O2)NN=Cc1ccc2c(c1)OC(F)C(F)(F)O2` (stereo not shown) [drawing 47 / B], the results for the “Mortality Rating Southern Armyworm” value in assay [1] (10 ppm) and in assay [1] (1000 ppm) were 0 (No effect) and 9 (100%), respectively. For the same compound, the “Mortality Rating Tobacco Budworm 3rd Instar” value in assay [2] (100 ppm) and in assay [2] (1000 ppm) was 0 (No effect) each time. Also, the “reduced feeding” value in assay [2] (100 ppm) and in assay [2] (1000 ppm) was “R” throughout.
`N=C(NN=Cc1ccc2c(c1)OC(F)C(F)(F)O2)NN=Cc1ccc2c(c1)OC(F)C(F)(F)O2` (stereo not shown) [drawing 48 / S]: the “Mortality Rating Southern Armyworm” value in assay [1] (100 ppm) was 0 (No effect). In addition, the “Mortality Rating Southern Armyworm” value in assay [1] (1000 ppm) was 9 (100%). For the same compound, in assay [2] (1000 ppm), the “Mortality Rating Tobacco Budworm 3rd Instar” value is given as 0 (No effect) and the “reduced feeding” value was “R”.
